Experimental findings from ChEMBL document CHEMBL3091439, “Further discovery of caffeic acid derivatives as novel influenza neuraminidase inhibitors” (Bioorg Med Chem, 2013) are described below.

For data set [1], the target named is T1, Neuraminidase (Influenza A virus, UniProt B4URF0). As to the kind of experiment: Inhibition of influenza A virus A/duck/China/QJ/01(H5N1) neuraminidase using 4-MU-NANA as substrate incubated for 5 mins prior to substrate addition measured after 30 to 60 mins by fluorescence assay.
The test system of another data set is Influenza A virus. Kind of data set: Antiviral activity against Influenza A virus (A/Chicken/Shandong/LY/08(H9N2)) infected in chicken embryo fibroblasts assessed as protection against virus-induced cytopathic effect preincubated for 1 hr followed by viral-infection measured after 2 days by MTS assay. Type of data set: functional, organism-based, Influenza A virus (A/chicken/Shandong/LY/2008(H9N2)). In general terms: Damage to the host cells serves as the signal in cytopathic effect assays.

Data set [2] has as its target T1, Neuraminidase. Kind of data set: Inhibition of Influenza A virus (A/Chicken/Shandong/LY/08(H9N2)) neuraminidase using 4-MU-NANA as substrate incubated for 5 mins prior to substrate addition measured after 30 to 60 mins by fluorescence assay. On the set-up: species or system Influenza A virus (A/chicken/Shandong/LY/2008(H9N2)).
Data set [3] in a line: Cytotoxicity against chicken embryo fibroblasts infected with Influenza A virus (A/Chicken/Shandong/LY/08(H9N2)) preincubated for 1 hr followed by viral-infection measured after 2 days by MTS assay. The class given is cell-based, Gallus gallus, Fibroblast. In general terms: Tetrazolium assays rely on reduction of a dye to a coloured formazan, in cell work by metabolically active cells.

Data set [4] concerns the target T1, Neuraminidase. As to the kind of experiment: Non competitive inhibition of influenza A virus A/duck/China/QJ/01(H5N1) neuraminidase using 4-MU-NANA as substrate incubated for 5 mins prior to substrate addition measured after 30 to 60 mins by Lineweaver-Burk plot analysis.
Data set [5] has as its target T1, Neuraminidase. Kind of data set: Non competitive inhibition of Influenza A virus (A/Chicken/Shandong/LY/08(H9N2)) neuraminidase using 4-MU-NANA as substrate incubated for 5 mins prior to substrate addition measured after 30 to 60 mins by Lineweaver-Burk plot analysis. The arrangement: species or system Influenza A virus (A/chicken/Shandong/LY/2008(H9N2)).

SMILES strings stand for the structures.

For orientation: IC50 means the concentration at which inhibition is half-maximal. A lower IC50 goes with higher potency. In general, EC50 refers to the concentration at which the effect is half-maximal. Broadly, the CC50 is the concentration that lowers cell viability or growth by half. High values mean better tolerance by the cells, low ones harm at low concentration. As to `CCC(CC)C(=O)Nc1cc(NC(=O)[C@H](CC(C)C)NC(=O)/C=C/c2ccc(O)c(O)c2)ccc1OCC(=O)O`, the results for the IC50 against Neuraminidase [1] and against Neuraminidase [2] were 14 µM and 8.5 µM, respectively. Also, the concentration giving a half-maximal response (EC50) with Influenza A virus was found to be 13.5 µM. For the same molecule, in data set [3], the midpoint of cytotoxicity, the CC50 at 48 h, lay at 89.7 µM.
As to `CCC(CC)C(=O)Nc1cc(NC(=O)C(C)C)c(N)cc1OCC(=O)O`, the IC50 at Neuraminidase [1] was 61.2 µM; against Neuraminidase [2], 54.3 µM.
Usually Ki stands for the dissociation constant of the complex between target and ligand, obtained from inhibition or displacement. Low readings indicate higher affinity, high ones lower affinity. Consider `CCC(CC)C(=O)Nc1cc(N(Cc2ccccc2)C(=O)/C=C/c2ccc(O)c(O)c2)ccc1OCC(=O)O`, for which the IC50 against Neuraminidase [1] was found to be 11.4 µM; against Neuraminidase [2] it was 16 µM. This molecule had a Ki at Neuraminidase [4] of 32.5 µM. Besides, the CC50 at 48 h in data set [3] is 78.2 µM.
As for `CCC(CC)C(=O)Nc1cc(NC(=O)[C@H](C)NC(=O)/C=C/c2ccc(O)c(O)c2)ccc1OCC(=O)O`, the IC50 against Neuraminidase [1] is 16.1 µM; against Neuraminidase [2] it was 7.9 µM. Also, the EC50 with Influenza A virus came to 25.4 µM. Also, the Ki on Neuraminidase [4] was 9.5 µM. This molecule also showed a cytotoxic concentration (CC50) at 48 h in data set [3] of more than 100 µM.
Regarding `CCC(CC)C(=O)Nc1cc(NC(=O)C(C)C)c(NC(=O)CCc2ccc(O)c(O)c2)cc1OCC(=O)O`, the IC50 against Neuraminidase [1] was found to be 38.2 µM; against Neuraminidase [2], 14.2 µM.
For `CCC(CC)C(=O)Nc1cc(NC(C)=O)c(NC(=N)N)cc1OCC(=O)O`, the IC50 against Neuraminidase [1] amounted to 75.8 µM; against Neuraminidase [2], 69.1 µM.
The matching figures for `CCC(CC)C(=O)Nc1cc(NS(=O)(=O)c2ccc(C)cc2)ccc1OCC(=O)O`: 86.7 µM and 78.6 µM.
Consider `CCC(CC)CN(C(=O)/C=C/c1ccc(O)c(O)c1)c1ccc(OCC(=O)O)c(NC(=O)C(CC)CC)c1`, for which the 50% inhibitory concentration (IC50) at Neuraminidase [1] turned out to be 11.3 µM; against Neuraminidase [2] it was 25.2 µM. For the same molecule, the EC50 in the data set on Influenza A virus was found to be 56.4 µM. This molecule showed a CC50 at 48 h in data set [3] of more than 100 µM.
Turning to `CCC(CC)C(=O)Nc1cc(NC(=O)C(C)C)c(NC(=N)N)cc1OCC(=O)O`, at Neuraminidase [2], the IC50 stood at 83.2 µM.
Take `CCC(CC)C(=O)Nc1cc(NC(=O)CNC(=O)/C=C/c2ccc(O)c(O)c2)ccc1OCC(=O)O`: the half-inhibitory concentration (IC50) against Neuraminidase [1] is 17.6 µM; on Neuraminidase [2], 9.2 µM. The EC50 in the data set with Influenza A virus is 33.6 µM. Besides, in data set [3], the CC50 at 48 h is more than 100 µM.
Consider `CCC(CC)C(=O)Nc1cc(NC(=O)[C@@H](NC(=O)/C=C/c2ccc(O)c(O)c2)C(C)C)ccc1OCC(=O)O`, for which the half-maximal inhibitory concentration (IC50) on Neuraminidase [1] is 16.6 µM; at Neuraminidase [2] it was 9.4 µM. In the data set on Influenza A virus, the concentration for a half-maximal effect (EC50) is 22.9 µM. The molecule also gave a CC50 at 48 h in data set [3] of 70.4 µM.
Turning to `CCC(CC)C(=O)Nc1ccc(OCC(=O)O)c(NC(=O)C(CC)CC)c1`, the IC50 against Neuraminidase [2] was more than 100 µM.
As for `CCC(CC)C(=O)Nc1cc(NC(C)=O)c(N)cc1OCC(=O)O`, the concentration for half-maximal inhibition (IC50) on Neuraminidase [1] came out at 58.5 µM; against Neuraminidase [2], 46.4 µM.
Molecule `CCC(CC)C(=O)Nc1cc(NC(=O)N[C@H](CC)CO)ccc1OCC(=O)O` had a 50% inhibitory concentration (IC50) at Neuraminidase [2] of more than 100 µM.
Consider `CCC(CC)C(=O)Nc1cc(N(Cc2cccs2)C(=O)/C=C/c2ccc(O)c(O)c2)ccc1OCC(=O)O`, for which the IC50 at Neuraminidase [1] worked out at 16.4 µM; on Neuraminidase [2] it was 24.1 µM. The 50% cytotoxic concentration (CC50) at 48 h in data set [3] is 87.6 µM.
As for `CCC(CC)C(=O)Nc1cc(NC(C)=O)c(NC(=O)CCc2ccc(O)c(O)c2)cc1OCC(=O)O`, the values for the IC50 against Neuraminidase [1] and at Neuraminidase [2] were 42.7 µM and 15.8 µM, respectively. Moreover, the cytotoxic concentration (CC50) at 48 h in data set [3] amounted to 47.2 µM.
For `CCC(CC)C(=O)Nc1cc(NC(=O)[C@H](Cc2ccccc2)NC(=O)/C=C/c2ccc(O)c(O)c2)ccc1OCC(=O)O`, the IC50 against Neuraminidase [1] came out at 16.2 µM; at Neuraminidase [2], 9.8 µM. Also, the CC50 at 48 h in data set [3] came out at 68.3 µM.
With `CCC(CC)C(=O)Nc1cc(NC(=O)NCc2ccccc2)ccc1OCC(=O)O`, the concentration for half-maximal inhibition (IC50) against Neuraminidase [1] turned out to be 55.6 µM; on Neuraminidase [2] it was 49.7 µM.
On to `CCC(CC)C(=O)Nc1cc(N)ccc1OCC(=O)O`, for which, at Neuraminidase [2], the IC50 is more than 100 µM.
Molecule `C#CCNC(=O)Nc1ccc(OCC(=O)O)c(NC(=O)C(CC)CC)c1` came in with an IC50 on Neuraminidase [2] of 89.8 µM.
At Neuraminidase [2], `CCC(CC)C(=O)Nc1cc(NC(=N)N)ccc1OCC(=O)O` registered a half-inhibitory concentration (IC50) of more than 100 µM.
Take `CCC(CC)C(=O)Nc1cc(NC(C)=O)c(NC(=O)/C=C/c2ccc(O)c(O)c2)cc1OCC(=O)O`: the figures for the 50% inhibitory concentration (IC50) at Neuraminidase [1] and against Neuraminidase [2] were 10.7 µM and 3.2 µM, respectively. In addition, in the data set on Influenza A virus, the 50% effective concentration (EC50) came out at 13.8 µM. The inhibitory constant (Ki) at Neuraminidase [5] turned out to be 2.7 µM. The CC50 at 48 h in data set [3] was more than 100 µM.
Regarding `CCC(CC)C(=O)Nc1cc(NC(=O)c2ccco2)ccc1OCC(=O)O`, on Neuraminidase [2], the IC50 was more than 100 µM.
For the molecule `CCC(CC)C(=O)Nc1cc(NC(=O)C(C)C)c(NC(=O)/C=C/c2ccc(O)c(O)c2)cc1OCC(=O)O`, the IC50 at Neuraminidase [1] was determined as 14.2 µM; at Neuraminidase [2], 5.8 µM. In the data set on Influenza A virus, the EC50 was determined as 14.5 µM. This molecule also returned a CC50 at 48 h in data set [3] of more than 100 µM.
